# Experimental data as given in US7217734B2, “Substituted benzopyrans as selective estrogen receptor-beta agonists” (Eli Lilly and Company, priority 2001, dated 2007).
# Molecular target: T1, ERbeta Receptor (Homo sapiens, UniProt Q92731)
# T1 construct: purchased Pan Vera
# Test: Competition ER binding assay (3H-Estradiol), ER beta
# Settings: ratio of Ki ER alpha to Ki ER beta; Ki from IC50 by Cheng-Prusoff equation
# Procedure: The competition ER binding assay was run in a buffer containing 50 mM N-[2-hydroxyethyl]piperazine-N′-[2-ethanesulfonic acid (Hepes) pH 7.5, 1.5 mM EDTA, 150 mM NaCl, 10% glycerol, 1 mg/mL ovalbumin, 5 mM DTT, 0.025 μCi per well of ^3H-Estradiol (NEN #NET517 at 118 Ci/mmol, 1 mCi/mL), and 10 ng/well ERAlpha or ERbeta Receptor (Pan Vera). Competing compounds were added at 10 different concentrations. Non-specific binding was determined in the presence of 1 μM of E2 (17-β Estradiol, Sigma, St. Louis, Mo.). The binding reaction (140 μL) was incubated for 4 hours at room temperature, then 70 μL of cold dextran coated charcoal (DCC) buffer was added to each reaction (DCC buffer was prepared by adding 0.75 g of charcoal [Sigma] and 0.25 g of dextran [Pharmacia] per 50 mL of assay buffer). The incubation plates were mixed for 8 minutes on an orbital shaker at 4° C. and then centrifuged at 3,000 rpm for 10 minutes at 4° C. An aliquot of 120 μl of the mix was transferred to another 96-well, white flat bottom plate (Costar) and 175 μl of Wallac Optiphase Hisafe 3 scintillation fluid was added to each well. The plates were sealed and then shaken vigorously on an orbital shaker. After an incubation of 2.5 hrs, the radioactivity was counted in a Wallac Microbeta counter. […] The Kd for ^3H-Estradiol was determined by saturation binding to ERα and ERβ receptors. The IC50 values for compounds were converted to Ki values using the Cheng-Prusoff equation and the Kd values were determined by saturation binding assay.
# T1 sequence (Q92731 whole entry): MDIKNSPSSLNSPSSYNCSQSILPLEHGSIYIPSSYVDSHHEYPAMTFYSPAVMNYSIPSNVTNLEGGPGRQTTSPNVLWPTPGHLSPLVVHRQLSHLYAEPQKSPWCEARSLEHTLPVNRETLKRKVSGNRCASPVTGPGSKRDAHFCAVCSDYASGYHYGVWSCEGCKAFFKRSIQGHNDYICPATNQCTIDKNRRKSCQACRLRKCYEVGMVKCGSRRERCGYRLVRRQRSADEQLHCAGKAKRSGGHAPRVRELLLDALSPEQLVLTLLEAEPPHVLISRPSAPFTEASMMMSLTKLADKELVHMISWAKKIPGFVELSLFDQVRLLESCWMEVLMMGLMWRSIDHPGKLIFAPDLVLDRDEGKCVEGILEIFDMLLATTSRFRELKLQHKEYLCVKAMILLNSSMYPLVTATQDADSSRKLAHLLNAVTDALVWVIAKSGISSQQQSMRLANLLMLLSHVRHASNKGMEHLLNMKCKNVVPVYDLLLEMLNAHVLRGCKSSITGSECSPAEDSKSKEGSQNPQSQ
row,Structure (SMILES),Ki (nM) ER alpha/Ki (nM) ER beta
1,"Oc1ccc([C@H]2Oc3ccc(C(F)(F)F)cc3[C@H]3CCC[C@H]32)cc1 (racemic) [Example 2, (^+)-2-(4-hydroxyphenyl)-6-trifluoromethyl-cyclopentyl[c]3,4-dihydro-2H-1-benzopyran]",1.4
2,"CC1(C)CC[C@H]2[C@@H](c3ccc(O)cc3)Oc3ccc(O)cc3[C@H]21 (racemic) [Example 10, (^+)-2-(4-hydroxyphenyl)-6-hydroxy-11,11-dimethyl-cyclopentyl[c]3,4-dihydro-2H-1-benzopyran]",2.5
3,"CCC1(CC)CC[C@H]2[C@@H](c3ccc(O)cc3)Oc3ccc(O)cc3[C@H]21 (racemic) [Example 11, (^+)-2-(4-hydroxyphenyl)-6-hydroxy-11,11-diethyl-cyclopentyl[c]3,4-dihydro-2H-1-benzopyran]",1.6
4,"Oc1ccc([C@H]2Oc3ccc(F)cc3[C@H]3CCC[C@H]32)cc1 (racemic) [Example 4, (^+)-2-(4-hydroxyphenyl)-6-fluoro-cyclopentyl[c]3,4-dihydro-2H-1-benzopyran]",4.7
5,"Cc1cc(O)cc2c1O[C@H](c1ccc(O)cc1)[C@@H]1CCC[C@H]21 (racemic) [Example 7, (^+)-2-(4-hydroxyphenyl)-6-hydroxy-8-meth 1-cyclopentyl[c]3,4-dihydro-2H-1-benzopyran]",5.1
6,"COc1cc(O)cc2c1O[C@H](c1ccc(O)cc1)[C@@H]1CCC[C@H]21 (racemic) [Example 9, (^+)-2-(4-hydroxyphenyl)-6-hydroxy-8-methoxy-cyclopentyl[c]3,4-dihydro-2H-1-benzopyran]",13
7,"Oc1ccc([C@H]2Oc3ccc(O)cc3[C@H]3CCC[C@H]32)cc1 (racemic) [Example 1, (^+)-2-(4-hydroxyphenyl)-6-hydroxy-cyclopentyl[c]3,4-dihydro-2H-1-benzopyran]",8.0
8,"Cc1ccc2c(c1)[C@H]1CCC[C@H]1[C@@H](c1ccc(O)cc1)O2 (racemic) [Example 3, (^+)-2-(4-hydroxyphenyl)-6-methyl-cyclopentyl[c]3,4-dihydro-2H-1-benzopyran]",1.2
9,"Oc1ccc([C@@H]2Oc3ccc(O)cc3[C@H]3CCC[C@H]32)cc1 (racemic) [Example 16, (^+)-2-(4-hydroxyphenyl)-6-hydroxy-cyclopentyl[c]3,4-dihydro-2H-1-benzopyran]",1.4

# The next lines start with the values.
row,Ki (nM) ER alpha/Ki (nM) ER beta,Structure (SMILES)
1,2.0,"Cc1cc2c(cc1O)[C@H]1CCC[C@H]1[C@@H](c1ccc(O)cc1)O2 (racemic) [Example 19, (^+)-2-(4-hydroxyphenyl)-6-hydroxy-7-methyl-cyclopentyl[c]3,4-dihydro-2H-1-benzopyran]"
2,4.4,"Cc1cc([C@H]2Oc3ccc(O)cc3[C@H]3CCC[C@H]32)ccc1O (racemic) [Example 13, (^+)-2-(4-hydroxy-3-methylphenyl)-6-hydroxy-cyclopentyl[c]3,4-dihydro-2H-1-benzopyran]"
3,4.6,"C[C@]1(c2ccc(O)cc2)Oc2ccc(O)cc2[C@@H]2CCC[C@@H]21 [Example 28, (^+)-2-methyl-2-(4-hydroxyphenyl)-6-hydroxy-cyclopentyl[c]3,4-dihydro-2H-1-benzopyran]"
4,2.3,"COc1ccc2c(c1)[C@H]1CCC[C@H]1[C@@H](c1ccc(O)cc1)O2 (racemic) [Example 12, (^+)-2-(4-hydroxyphenyl)-6-methoxy-cyclopentyl[c]3,4-dihydro-2H-1-benzopyran]"
5,0.6,"Cc1cc2c(cc1O)[C@H]1CCC[C@H]1[C@H](c1ccc(O)cc1)O2 (racemic) [Example 20, (^+)-2-(4-hydroxyphenyl)-6-hydroxy-7-methyl-cyclopentyl[c]3,4-dihydro-2H-1-benzopyran]"
6,11,"Cc1cc(O)ccc1[C@H]1Oc2ccc(O)cc2[C@H]2CCC[C@H]21 (racemic) [Example 15, (^+)-2-(2-methyl-4-hydroxyphenyl)-6-hydroxy-cyclopentyl[c]3,4-dihydro-2H-1-benzopyran]"
7,2.6,"Cc1cc([C@@H]2Oc3ccc(O)cc3[C@H]3CCC[C@H]32)ccc1O (racemic) [Example 14, (^+)-2-(4-hydroxy-3-methylphenyl)-6-hydroxy-cyclopentyl[c]3,4-dihydro-2H-1-benzopyran]"
8,1.4,"CC(C)[C@]1(c2ccc(O)cc2)Oc2ccc(O)cc2[C@@H]2CCC[C@@H]21 [Example 30, (+)-2-(1-methylethyl)-2-(4-hydroxyphenyl)-6-hydroxy-cyclopentyl[c]3,4-dihydro-2H-1-benzopyran]"
9,1.3,"CC[C@]1(c2ccc(O)cc2)Oc2ccc(O)cc2[C@@H]2CCC[C@@H]21 [Example 29, (^+)-2-ethyl-2-(4-hydroxyphenyl)-6-hydroxy-cyclopentyl[c]3,4-dihydro-2H-1-benzopyran]"
